How the values were obtained:
[1] = Saturated solubility in oil phase and blank self-emulsifying concentrate; type: physicochemical; details: room temperature 24 hours
Description: They were placed at room temperature for 24 hours to observe whether the drug was precipitated. If no drug was precipitated, an appropriate amount of each phospholipid complex was added and operated in the same manner until the drug was precipitated. The supernatant was taken and centrifuged at 12000 r/min for 20 min. Then, the supernatant was taken and the saturated solubility of each flavonoid polyphenol drug-phospholipid complex in the oil phase and the blank self-emulsifying concentrate was determined by the preceding HPLC method.

[2] = Plasma pharmacokinetics after gavage in rats; type: in vivo, Sprague-Dawley rats; details: gavage 40 mg/kg
Description: Test group B: The self-emulsifying composition of baicalein encapsulating baicalein ingredient in Comparative Example 1 (hereinafter labeled OBA-SMEDDS) was administered.
Test group C: Baicalein ingredient (hereinafter labeled BA) was administered.
Sprague-Dawley rats (male, 200 g) were fed for one week before tests, forbidden to eat rather than drink the night before the tests, and supplied with water freely during the tests.
15 rats were randomly divided into three groups (test group A, test group B and test group C, separately), with 5 rats in each group. Gavage (2-3 mL) was provided at a dose of 40 mg/kg. 0.3 mL of blood was taken from the retro-orbital venous plexus at 5, 15, 30, 45, 60 and 75 min and 3, 6, 8, 10, 12 and 24 h after administration, placed in a pre-heparinized 1.5 mL conical centrifuge tube, and centrifuged at 4000 r/min for 15 min. The upper plasma was aspirated, stored in the refrigerator at −80° C., and thawed at normal temperature before determination.
Treatment of plasma samples: 100 μL of plasma was taken, placed in a 1.5 mL conical centrifuge tube, added with 10 μL of ascorbic acid (200 mg/mL), 20 μL of an internal standard solution (500 ng/ml) and 300 μL of methanol, vortexed for 60 s, and centrifuged at 12000 r/min for 10 min. Then, the supernatant was aspirated, placed in a centrifuge tube, concentrated through centrifugation to remove the solvent (40° C.), added with 200 μL of methanol:water (80:20) to be dissolved, vortexed for 30 s, and centrifuged at 12000 r/min for 5 min. 20 μL of the supernatant was injected and the plasma concentration was determined under the following chromatography conditions (liquid chromatography-mass spectrometry).
Chromatography column: Agilent ZORBAX SB C18 column (250 mm×4.6 mm, […]);
Column temperature: 25° C.;
Mobile phase (gradient elution, see Table 11): acetonitrile-0.1% formic acid as an eluent.
Electrospray ion source (ESI), positive ion mode, multiple reaction monitoring (MRM);
Other parameters: an atomizer pressure of 40 psi, a drying gas flowrate of 9 L/min, a drying gas temperature of 350° C., a capillary voltage of 4000V and a split ratio of 1:2.
MRM detection ion pair for quantification: baicalin [M+H]+ 447.0→271.1;

[3] = male, Sprague-Dawley, rat, po, baicalein in plasma

O=c1cc(-c2ccccc2)oc2cc(O)c(O)c(O)c12 [BA, baicalein]
saturated solubility in the blank self-emulsifying concentrate (drug load of the self-emulsifying composition) ([1]; ethyl oleate:labraosol:transcutol HP 2:5:3): 20 mg/g
saturated solubility in oil ([1]; oil phase ethyl oleate): 0.3 mg/g
AUC (0-t) ([2]; baicalein in plasma): 15864.8 µg·min/L
AUC (0-∞) ([2]; baicalein in plasma): 15880.4 µg·min/L
Cmax [2, 3]: 99.1 ± 42 ng/mL
Tmax [2, 3]: 1.25 h
MRT last ([2]; male, Sprague-Dawley, rat, po, baicalein in plasma, read-out: MRT (0-t) (converted)): 4 h
MRT inf ([2]; male, Sprague-Dawley, rat, po, baicalein in plasma, read-out: MRT (0-∞) (converted)): 4.01 h
bioavailability ([2]; male, Sprague-Dawley, rat, po, relative to baicalein ingredient, based on baicalein in plasma): 100%

Source: patent US11771660B2, “Flavonoid polyphenol drug self-emulsifying composition, preparation method therefor, pharmaceutical composition thereof and application thereof” (priority 2019, dated 2023)
